Source: the NIST ThermoML archive (doi:10.1021/acs.jced.6b00178)

Assay: xn = mol fraction of the nth substance listed
Details: 100 kPa, Liquid, x1 = 1; for viscosity: Concentric cylinders viscometry; for mass density: Vibrating tube method

CCCC[n+]1ccn(C)c1.O=S(=O)([N-]S(=O)(=O)C(F)(F)F)C(F)(F)F + CC(=O)[O-].CCCCn1cc[n+](C)c1
Details | mass density [kg/m3] | viscosity [mPa·s]
283.15 K | 1451.8 | 106.78
288.15 K | 1446.9 | 82.14
293.15 K | 1442.1 | 66.36
298.15 K | 1437.2 | 51.58
303.15 K | 1432.4 | 41.94
308.15 K | 1427.6 | 34.6
313.15 K | 1422.9 | 29.48
318.15 K | 1418.2 | 24.47
323.15 K | 1413.5 | 20.93
328.15 K | 1408.8 | 18.07
333.15 K | 1404.1 | 15.95
338.15 K | 1399.4 | 13.83
343.15 K | 1394.8 | 12.23
348.15 K | 1390.2 | 10.9
353.15 K | 1385.6 | 9.985
358.15 K | 1381.1 | 8.806
363.15 K | 1376.6 | 7.98

CCCC[n+]1ccn(C)c1.O=S(=O)([N-]S(=O)(=O)C(F)(F)F)C(F)(F)F + CCCCn1cc[n+](C)c1.COP(=O)([O-])OC
Details | mass density [kg/m3] | viscosity [mPa·s]
283.15 K | 1451.8 | 106.78
288.15 K | 1446.9 | 82.14
293.15 K | 1442.1 | 66.36
298.15 K | 1437.2 | 51.58
303.15 K | 1432.4 | 41.94
308.15 K | 1427.6 | 34.6
313.15 K | 1422.9 | 29.48
318.15 K | 1418.2 | 24.47
323.15 K | 1413.5 | 20.93
328.15 K | 1408.8 | 18.07
333.15 K | 1404.1 | 15.95
338.15 K | 1399.4 | 13.83
343.15 K | 1394.8 | 12.23
348.15 K | 1390.2 | 10.9
353.15 K | 1385.6 | 9.985
358.15 K | 1381.1 | 8.806
363.15 K | 1376.6 | 7.98

CCCC[n+]1ccn(C)c1.O=S(=O)([N-]S(=O)(=O)C(F)(F)F)C(F)(F)F + CCCCn1cc[n+](C)c1.F[P-](F)(F)(F)(F)F
Details | mass density [kg/m3] | viscosity [mPa·s]
283.15 K | 1451.8 | 106.77
288.15 K | 1446.9 | 82.16
293.15 K | 1442.1 | 64.53
298.15 K | 1437.2 | 51.6
303.15 K | 1432.4 | 41.93
308.15 K | 1427.6 | 34.59
313.15 K | 1422.8 | 28.91
318.15 K | 1418.1 | 24.46
323.15 K | 1413.4 | 20.91
328.15 K | 1408.7 | 18.05
333.15 K | 1404 | 15.72
338.15 K | 1399.3 | 13.8
343.15 K | 1394.7 | 12.2
348.15 K | 1390.1 | 10.86
353.15 K | 1385.5 | 9.72
358.15 K | 1381 | 8.754
363.15 K | 1376.4 | 7.926
